Experimental data: patent publication US20250222109A1, “STRUCTURED LIPID COMPOSITIONS” (Universität Bern, priority 2022, published 2025)

What was measured:
[1] = Drug encapsulation and distribution in TIF-Gel (WAXS, HPLC of gel layers); format: physicochemical
Procedure: The tube was centrifuged and kept at rest for 24 hours. Subsequently, the gel was divided into 3 different layers (Top, Middle, and Bottom), and the drug content evaluated in each by HPLC.
WAXS measurements were performed on a Bruker AXS Micro, with a microfocused X-ray source, operating at voltage and filament current of 50 kV and 1000 μA, respectively. The Cu Kα radiation (λCu Kα=1.5418 Å) was collimated by a 2D Kratky collimator, and the data were collected by a 2D Pilatus 100K detector. The scattering vector Q=(4π/λ) sin θ, with 2θ being the scattering angle, was calibrated using silver behenate. Data were collected and azimuthally averaged using the Saxsgui software to yield 1D intensity vs. scattering vector Q, with a Q range from 13 to 18 nm-1. For all measurements the samples were placed inside a stainless-steel cell between two thin replaceable mica sheets and sealed by an O-ring, with a sample volume of 10 μL and a thickness of ˜1 mm.
The TAC loaded mesophase composition comprised: a) a carrier comprising: a1) water in an amount of 16% by weight of the carrier; and a2) MLO in an amount of 84% by weight of the carrier; and b) TAC in an amount of 1% by weight of the composition.

[2] = Stability study of TAC and TOFA-loaded TIF-Gel (HPLC); format: physicochemical; details: 4° C. and 25° C., one-month period
Procedure: The TAC and TOFA-loaded TIF-Gels were prepared according to Example 1. […] The TAC-loaded TIF-Gel composition comprised a) a carrier comprising: a1) water in an amount of 16% by weight of the carrier; and a2) MLO in an amount of 84% by weight of the carrier; and b) TAC in an amount of 1% by weight of the composition. […] At specific time points, an aliquot of the formulation was analysed at the HPLC, and the content of the drug was recorded. Data are expressed as relative percentage referred to day 0.

[3] = SAXS phase identification of MLO-water mesophases (TIF-Gel); format: physicochemical; details: 10% w/w of drug; lamellar at room temperature, cubic (Ia3d) at 38° C.
Procedure: SAXS measurements were used to determine the phase identity and symmetry of the produced LMPs. Measurements were performed on a Bruker AXS Micro, with a microfocused X-ray source, operating at voltage and filament current of 50 kV and 1000 μA, respectively. The Cu Kα radiation (λCu Kα=1.5418 Å) was collimated by a 2D Kratky collimator, and the data were collected by a 2D Pilatus 100K detector. The scattering vector Q=(4π/λ) sin θ, with 2θ being the scattering angle, was calibrated using silver behenate. Data were collected and azimuthally averaged using the Saxsgui software to yield 1D intensity vs. scattering vector Q, with a Q range from 0.001 to 0.5 Å^−1. For all measurements the samples were placed inside a stainless-steel cell between two thin replaceable mica sheets and sealed by an O-ring, with a sample volume of 10 μL and a thickness of ˜1 mm. Measurements were performed at 25° C., 30° C., 34° C., 36° C. and 38° C. Samples were equilibrated for 10 min before measurements whereas scattered intensity was collected over 30 min and over 60 min in case of lamellar phase. On the other hand, for the kinetic study, the sample was pre equilibrated at 25° C. and inserted in the sample holder kept at 38° C. and the scattered intensity collected over 5 min. To determine the structural parameters such as the size of the water channels, SAXS data information on the lattice were combined with the composition of the samples (R. Mezzenga, et al., Shear rheology of lyotropic liquid crystals: a case study, Langmuir 21, 3322-3333 (2005)).
MLO was used as the lipid component of the mesophases and mixed with weighed amounts of drugs (10% w/w) in sealed Pyrex tubes and alternatively centrifuging (10 min, 5000 g) several times at room temperature until a homogenous mixture was obtained. The mesophase was then equilibrated for 48 h at room temperature in the dark (see, FIGS. 1A and 1B).
Firstly, small angle X-ray scattering (SAXS) measurements were used to determine the optimal amount of water needed to obtain a lamellar phase which provides a transition to a cubic at 38° C. (FIGS. 2B and 2C). The X-ray beam directed at the gel results in a scattering pattern with a set of maxima, that correspond to sharp Bragg reflections characteristic of the long-range positional order. The sequence of Bragg reflections (and their ratio; listed in FIG. 2A) identifies the symmetry of the mesophase studied (See also FIGS. 1A and 1B).

[4] = as above; format: physicochemical; details: 5 mg of TOFA and 1 mg of TAC in 100 mg of gel
T cell transfer colitis = assay: T-cell transfer colitis; format: in vivo, mice; details: colonoscopy, day 19 post T cell application

distribution of drug in the gel matrix ([1]; Top, Middle and Bottom gel layers, HPLC): homogeneously distributed
drug crystallisation in the gel (WAXS) ([1]; embedded in the 3D gel structure): do not form crystals
encapsulation efficacy ([1]; encapsulated in the TIF-Gel): 100%
long-term stability of drug loaded into TIF-gel (drug content by HPLC) [2]: stable
Compound: C=CC[C@@H]1/C=C(\C)C[C@H](C)C[C@H](OC)[C@H]2O[C@@](O)(C(=O)C(=O)N3CCCC[C@H]3C(=O)O[C@H](/C(C)=C/[C@@H]3CC[C@@H](O)[C@H](OC)C3)[C@H](C)[C@@H](O)CC1=O)[C@H](C)C[C@@H]2OC [TAC, tacrolimus]
effect of drug on phase identity and transition temperature of the gel [3]: did not affect the phase identity and the transition temperature
effect of drug entrapment on phase identity and thermal behaviour of the carrier gel [4]: did not affect the phase identity and thermal behaviour
endoscopic signs of colitis (T cell transfer colitis): reduced endoscopic signs of colitis
